Data from patent publication US20230265151A1, “GIP/GLP1 CO-AGONIST COMPOUNDS” (priority 2020, published 2023).
Where two headings read alike, the source gives them in different places.

Legend:
[1] = target: T1, human GLP-1 receptor (hGLP-1R) (Homo sapiens, UniProt P43220); experiment: [125I]-GLP-1 binding, SPA with membranes of HEK293 cells expressing hGLP-1R
T1 construct: expressed in transfected cells; crude membranes

hGIPR = target: T2, hGIPR (Homo sapiens, UniProt P48546); experiment: Functional cAMP formation (HTRF) in HEK-293 clonal cells expressing hGIPR, 0.1% bovine casein, without or with 1.0% human serum albumin; format: cell-based
T2 construct: expressed in transfected cells
T2 sequence (P48546 22-466): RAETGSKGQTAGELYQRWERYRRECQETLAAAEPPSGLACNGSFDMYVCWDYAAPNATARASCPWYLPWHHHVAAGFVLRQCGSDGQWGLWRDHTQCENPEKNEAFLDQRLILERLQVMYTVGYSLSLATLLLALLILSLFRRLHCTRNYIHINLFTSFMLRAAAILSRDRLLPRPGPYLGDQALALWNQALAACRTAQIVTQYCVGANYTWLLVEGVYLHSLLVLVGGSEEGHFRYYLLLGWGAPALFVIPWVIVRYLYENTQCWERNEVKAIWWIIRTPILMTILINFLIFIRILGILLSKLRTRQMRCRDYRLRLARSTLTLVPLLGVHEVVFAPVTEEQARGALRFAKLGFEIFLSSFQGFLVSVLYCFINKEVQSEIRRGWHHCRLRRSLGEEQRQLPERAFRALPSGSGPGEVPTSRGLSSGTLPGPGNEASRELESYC
Method in brief: (§1)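 Readings of the HTRF 665/620 nm ratio, which falls as cAMP rises, were converted to nM cAMP using a standard curve after 30 min peptide exposure at 37° C.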

hGCGR = target: T3, hGCGR (Homo sapiens, UniProt P47871); experiment: Functional cAMP formation (HTRF) in HEK-293 clonal cells expressing hGCGR, 0.1% bovine casein, without or with 1.0% human serum albumin; format: cell-based
T3 construct: expressed in transfected cells
Method in brief: as §1

hGLP-1R = hGLP-1R (Homo sapiens, UniProt P43220); experiment: Functional cAMP formation (HTRF) in HEK-293 clonal cells expressing hGLP-1R, 0.1% bovine casein, without or with 1.0% human serum albumin; format: cell-based; parameters: expressed in transfected cells; details: for EC50: geometric mean; for Emax: percent of maximal response to GLP-1(7-36)NH2
Method in brief: as §1

hGLP-1R, sequence (P43220 24-463): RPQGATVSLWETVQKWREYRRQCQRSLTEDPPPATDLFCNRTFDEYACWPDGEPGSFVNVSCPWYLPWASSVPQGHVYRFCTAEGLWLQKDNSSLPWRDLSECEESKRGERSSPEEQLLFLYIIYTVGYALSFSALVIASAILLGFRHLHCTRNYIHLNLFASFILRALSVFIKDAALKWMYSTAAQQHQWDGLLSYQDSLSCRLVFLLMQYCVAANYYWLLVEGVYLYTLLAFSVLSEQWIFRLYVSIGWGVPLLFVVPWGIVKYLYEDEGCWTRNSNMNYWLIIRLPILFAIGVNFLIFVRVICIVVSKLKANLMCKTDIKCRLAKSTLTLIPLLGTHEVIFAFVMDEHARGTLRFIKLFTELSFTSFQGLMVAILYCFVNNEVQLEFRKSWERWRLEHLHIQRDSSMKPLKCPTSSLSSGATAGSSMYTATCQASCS
T3 sequence (P47871 26-477): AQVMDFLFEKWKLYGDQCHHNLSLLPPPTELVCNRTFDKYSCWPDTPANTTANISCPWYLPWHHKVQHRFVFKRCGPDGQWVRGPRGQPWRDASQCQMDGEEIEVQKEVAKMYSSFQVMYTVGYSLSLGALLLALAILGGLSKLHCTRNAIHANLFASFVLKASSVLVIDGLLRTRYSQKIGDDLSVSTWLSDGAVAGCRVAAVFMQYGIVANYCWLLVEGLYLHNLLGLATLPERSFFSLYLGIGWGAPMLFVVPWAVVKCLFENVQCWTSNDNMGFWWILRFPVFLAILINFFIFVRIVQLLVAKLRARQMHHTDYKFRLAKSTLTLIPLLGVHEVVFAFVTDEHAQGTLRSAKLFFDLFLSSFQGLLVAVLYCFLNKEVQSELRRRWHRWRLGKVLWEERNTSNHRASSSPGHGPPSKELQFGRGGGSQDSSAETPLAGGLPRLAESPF
T1 sequence (P43220 24-463): as the sequence (P43220 24-463) above

Compound	Ki ([1]; human GLP-1R, geometric mean (SEM, n), read-out: Binding Affinity Ki, nM (SEM, n) hGLP-1R) [nM]	EC50 (hGIPR; 0.1% bovine casein and 1.0% human serum albumin, 37° C., geometric mean, read-out: hGIPR EC50, nM (SEM, n)) [nM]	Emax (hGIPR; HEK293, 0.1% bovine casein and 1.0% human serum albumin, 37° C., percent of maximal response to GIP(1-42)NH2, read-out: hGIPR Emax, % ± SEM) [%]	Emax (hGIPR; HEK293, percent of maximal response to GIP(1-42)NH2, 37° C., 0.1% bovine casein, arithmetic mean, read-out: hGIPR Emax, % ± SEM) [%]	EC50 (hGIPR; cAMP, incubated at 37° C., 0.1% bovine casein (no human serum albumin), geometric mean, read-out: hGIPR EC50, nM (SEM, n)) [nM]	EC50 (hGCGR; 0.1% bovine casein and 1.0% human serum albumin, 37° C., geometric mean, read-out: hGCGR EC50, nM (SEM, n)) [nM]	EC50 (hGCGR; cAMP, incubated at 37° C., 0.1% bovine casein (no human serum albumin), geometric mean, read-out: hGCGR EC50, nM (SEM, n)) [nM]	EC50 (hGLP-1R; 0.1% bovine casein and 1.0% human serum albumin, 37° C., read-out: hGLP-1R EC50, nM (SEM, n)) [nM]	Emax (hGLP-1R; HEK293, 0.1% bovine casein and 1.0% human serum albumin, 37° C., read-out: hGLP-1R Emax, % ± SEM) [%]	EC50 (hGLP-1R; cAMP, incubated at 37° C., 0.1% bovine casein (no human serum albumin), read-out: hGLP-1R EC50, nM (SEM, n)) [nM]	Ki [1] [nM]	Emax (hGIPR; HEK293, read-out: hGIPR Emax, % ± SEM, cAMP, 37° C., 0.1% bovine casein and 1.0% human serum albumin, percent of maximal response to GIP(1-42)NH2) [%]	EC50 (hGIPR; hGIPR EC50, nM (SEM, n), cAMP, 37° C., 0.1% bovine casein (no human serum albumin), geometric mean) [nM]	EC50 (hGIPR; hGIPR EC50, nM (SEM, n), cAMP, 37° C., 0.1% bovine casein and 1.0% human serum albumin, geometric mean (SEM, n)) [nM]	EC50 (hGCGR; hGCGR EC50, nM (SEM, n), cAMP, 37° C., 0.1% bovine casein (no human serum albumin), geometric mean) [nM]	EC50 (hGCGR; hGCGR EC50, nM (SEM, n), cAMP, 37° C., 0.1% bovine casein and 1.0% human serum albumin, geometric mean (SEM, n)) [nM]	Emax (hGLP-1R; HEK293, read-out: hGLP-1R Emax, % ± SEM, cAMP, 37° C., 0.1% bovine casein and 1.0% human serum albumin) [%]	Emax (hGLP-1R; HEK293, read-out: hGLP-1R Emax, % ± SEM, cAMP, 37° C., 0.1% bovine casein, arithmetic mean) [%]	EC50 (hGLP-1R; hGLP-1R EC50, nM (SEM, n), cAMP, 37° C., 0.1% bovine casein (no human serum albumin)) [nM]
CC[C@H](C)[C@H](NC(=O)[C@H](CCCN)NC(=O)[C@H](CC(=O)O)NC(=O)[C@H](CC(C)C)NC(=O)[C@](C)(CC(C)C)NC(=O)[C@@H](NC(=O)[C@H](CO)NC(=O)[C@H](Cc1ccncc1)NC(=O)[C@H](CC(=O)O)NC(=O)[C@H](CO)NC(=O)[C@@H](NC(=O)[C@](C)(Cc1ccccc1F)NC(=O)[C@@H](NC(=O)CNC(=O)[C@H](CCC(=O)O)NC(=O)C(C)(C)NC(=O)[C@@H](N)Cc1ccc(O)cc1)[C@@H](C)O)[C@@H](C)O)[C@@H](C)CC)C(=O)N[C@@H](C)C(=O)N[C@@H](CCC(N)=O)C(=O)NC(C)(C)C(=O)N[C@@H](CCCCNC(=O)COCCOCCNC(=O)COCCOCCNC(=O)CC[C@H](NC(=O)CCCCCCCCCCCCC(=O)O)C(=O)O)C(=O)N[C@@H](Cc1ccccc1)C(=O)N[C@H](C(=O)N[C@H](CCC(=O)O)C(=O)N[C@@](C)(Cc1ccc(O)cc1)C(=O)N[C@@H](CC(C)C)C(=O)N[C@H](C(=O)N[C@@H](CCCCNC(=O)COCCOCCNC(=O)COCCOCCNC(=O)CC[C@H](NC(=O)CCCCCCCCCCCCC(=O)O)C(=O)O)C(=O)NCC(=O)NCC(=O)N1CCC[C@H]1C(=O)N[C@@H](CO)C(=O)N[C@@H](CO)C(=O)NCC(=O)N[C@@H](C)C(=O)N1CCC[C@H]1C(=O)N1CCC[C@H]1C(=O)N1CCC[C@H]1C(=O)N[C@@H](CO)C(N)=O)[C@@H](C)CC)[C@@H](C)CC [Example 73]	3.38	2.16	80.2	97.1 ± 2.7	0.0207	> 9950	> 9950	56.2	109	0.437	–	–	–	–	–	–	–	–	–
CC[C@H](C)[C@H](NC(=O)[C@H](CC(C)C)NC(=O)[C@](C)(Cc1ccc(O)cc1)NC(=O)[C@@H](CCC(=O)O)NC(=O)[C@@H](NC(=O)[C@H](Cc1ccccc1)NC(=O)[C@H](CCC(=O)O)NC(=O)C(C)(C)NC(=O)[C@H](CCC(N)=O)NC(=O)[C@H](C)NC(=O)[C@H](CCCCNC(=O)COCCOCCNC(=O)CC[C@H](NC(=O)CCCCCCCCCOc1ccc(C(=O)O)cc1)C(=O)O)NC(=O)[C@H](CCCN)NC(=O)[C@H](CC(=O)O)NC(=O)[C@H](CC(C)C)NC(=O)[C@](C)(CC(C)C)NC(=O)[C@@H](NC(=O)C(C)(C)NC(=O)[C@H](Cc1ccncc1)NC(=O)[C@H](CC(=O)O)NC(=O)[C@H](CO)NC(=O)[C@@H](NC(=O)[C@](C)(Cc1ccccc1F)NC(=O)[C@@H](NC(=O)CNC(=O)[C@H](CCC(=O)O)NC(=O)C(C)(C)NC(=O)[C@@H](N)Cc1ccc(O)cc1)[C@@H](C)O)[C@@H](C)O)[C@@H](C)CC)[C@@H](C)CC)C(=O)N[C@@H](CCCCNC(=O)COCCOCCNC(=O)CC[C@H](NC(=O)CCCCCCCCCOc1ccc(C(=O)O)cc1)C(=O)O)C(=O)NCC(=O)NCC(=O)N1CCC[C@H]1C(=O)N[C@@H](CO)C(=O)N[C@@H](CO)C(=O)NCC(=O)N[C@@H](C)C(=O)N1CCC[C@H]1C(=O)N1CCC[C@H]1C(=O)N1CCC[C@H]1C(=O)N[C@@H](CO)C(N)=O [Example 361]	–	–	–	–	–	–	–	–	–	–	1.22	88.8	0.0121	1.44	> 9950	> 9950	98.8	98.2	0.58
